Values quoted from earlier work in US8859001B2, “Fenoldopam formulations and pro-drug derivatives” (priority 2007, dated 2014).
Counter-ions that a name gives are not always drawn. Like-named read-outs stand apart in the source and are kept apart here.

How the values were obtained:
[1] = IV infusion
patients = details: clinical use
[2] = test system: human lymphoma and leukemia lines (Jurkat, HuT-78, K-562, Daudi, Raji); details: for effectiveness in killing lymphoma and leukemia: selective dopamine D1/5 receptor agonists tested
[3] = test system: TCR-activated human normal peripheral T-cells
[4] = test system: resting (i.e., not TCR-activated) human normal peripheral T-cells; details: in vitro
mice = details: mouse, in vivo, po

For Oc1ccc(C2CNCCc3c2cc(O)c(O)c3Cl)cc1 (racemic) [Fenoldopam mesylate, 6-chloro-2,3,4,5-tetrahydro-1-(4-hydroxyphenyl)-1H-3-benzazepine-7,8-diol, methanesulfonate], the solubility (HCl/KCl buffer pH 1.5) is given as 9100 µg/mL, the solubility (buffer pH 6.8) is given as 130 µg/mL and the solubility in ethanol (ethanol) is given as “sparingly soluble”. The solubility in methanol (methanol) was “sparingly soluble”, the solubility (pH 7.5) was 60 µg/mL and the “solubility in propylene glycol” value (propylene glycol) was “soluble”. For the same compound, the solubility in water (water) was “sparingly soluble”, the “half life T1/2” value [1] was about 5 min and the “patients reporting the major side effects (headache, flushing and nausea)” value (patients) was at most 10%. The “time to start of measurable cell death after exposure” value [2] was 1 to 60 min, the “death of cancer cells on in vitro exposure” value ([2]; 1 mM-0.01 mM fenoldopam mesylate, five lymphoma/leukemia lines) was “death of all, or the vast majority of, these cancer cells” and the “death of cells (number of live and dead cells)” value ([2]; cancer cells, after 72 hr, concentrations within 0.1 mM-0.1 nM) was “over 98%”. The “killing of TCR-activated T-cells” value ([3]; in vitro) was “kills potently a substantial proportion”, the “death of cells (number of live and dead cells)” value ([3]; normal TCR-activated T-cells, after 72 hr, concentrations within 0.1 mM-0.1 nM) was “over 98%” and the “effect on resting T-cells” value [4] was “hardly affecting”. For the same compound, the affinity (α2-adrenoceptors) was “moderate affinity”, the affinity (D2-like receptors) was “no significant affinity” and the affinity (α1 adrenoceptors) was “no significant affinity”. For the same compound, the affinity (β adrenoceptors) was “no significant affinity”, the affinity (5HT1 receptors) was “no significant affinity” and the affinity (5HT2 receptors) was “no significant affinity”. The affinity (muscarinic receptors) was “no significant affinity”.

For CCOC(=O)C(C)O (stereo not shown) [Ethyl lactate, 2-hydroxypropanoic acid ethyl ester], the LD50 (mice) is given as “higher than 5 g/kg”.

For Cl.NC[C@@H]1O[C@H](c2ccccc2)Cc2c1ccc(O)c2O (racemic) [A 68930 hydrochloride, cis-(±)-1-(aminomethyl)-3,4-dihydro-3-phenyl-1H-2-benzopyran-5,6-diol hydrochloride], the “effectiveness in killing lymphoma and leukemia” value [2] is listed as “effective in killing lymphoma and leukemia”.

In the case of Cl.NC[C@@H]1O[C@H](C23CC4CC(CC(C4)C2)C3)Cc2c1ccc(O)c2O [A 77636 hydrochloride, (1R-cis)-1-(aminomethyl)-3,4-dihydro-3-tricyclo[3.3.1.13,7]dec-1-yl-[1H]-2-benzopyran-5,6-diol hydrochloride], the “relative effectiveness as cancer cell killer” value ([2]; compared among dopamine receptor agonists) is listed as “the most effective cancer killers”, the “effectiveness in killing lymphoma and leukemia” value [2] is listed as “effective in killing lymphoma and leukemia” and the “relative effectiveness as killer of TCR-activated T-cells” value ([3]; compared among highly selective D1R agonists) is listed as “the most effective killers of TCR-activated T-cells”.

In the case of Br.Oc1cc2c(cc1O)C(c1ccccc1)CNCC2 (racemic) [SKF 38393 hydrobromide, (±)-1-phenyl-2,3,4,5-tetrahydro-(1H)-3-benzazepine-7,8-diol hydrobromide], the “effectiveness in killing lymphoma and leukemia” value [2] is listed as “effective in killing lymphoma and leukemia”.
